From the NIST ThermoML archive (doi:10.1016/j.jct.2006.08.009)

Assay: mn = molality of the nth substance listed, in mol/kg
Details: 350 kPa, Liquid; for apparent molar heat capacity: Extra sensitive DSC

OC[C@@H](O)[C@H](O)[C@@H](O)CO [xylitol] + O
Details | apparent molar heat capacity [J/K/mol] | mass density [kg/m3]
278.15 K, m1 = 0.0499 | 278.9 | 1002.96
278.15 K, m1 = 0.1 | 288.4 | 1005.41
278.15 K, m1 = 0.4001 | 293.3 | 1020.49
278.15 K, m1 = 0.7496 | 297.2 | 1036.91
278.15 K, m1 = 1.001 | 299.5 | 1047.83
278.15 K, m1 = 1.498 | 303.4 | 1067.95
278.15 K, m1 = 1.997 | 301.8 | 1086.45
278.15 K, m1 = 2.701 | 311.1 | 1109.42
283.15 K, m1 = 0.0499 | 296.8 | 1002.63
283.15 K, m1 = 0.1 | 306.1 | 1005.03
283.15 K, m1 = 0.4001 | 310.2 | 1019.9
283.15 K, m1 = 0.7496 | 313.4 | 1036.06
283.15 K, m1 = 1.001 | 315.6 | 1046.82
283.15 K, m1 = 1.498 | 318.5 | 1066.63
283.15 K, m1 = 1.997 | 317.4 | 1084.9
283.15 K, m1 = 2.701 | 325 | 1107.65
288.15 K, m1 = 0.0499 | 310.8 | 1001.96
288.15 K, m1 = 0.1 | 319.8 | 1004.34
288.15 K, m1 = 0.4001 | 323.4 | 1019.04
288.15 K, m1 = 0.7496 | 326.2 | 1035
288.15 K, m1 = 1.001 | 328.1 | 1045.65
288.15 K, m1 = 1.498 | 330.3 | 1065.25
288.15 K, m1 = 1.997 | 328.7 | 1083.35
288.15 K, m1 = 2.701 | 335.7 | 1105.88
293.15 K, m1 = 0.0499 | 322.5 | –
293.15 K, m1 = 0.1 | 331.4 | –
293.15 K, m1 = 0.4001 | 334.8 | –
293.15 K, m1 = 0.7496 | 337.1 | –
293.15 K, m1 = 1.001 | 338.8 | –
293.15 K, m1 = 1.498 | 340.5 | –
293.15 K, m1 = 1.997 | 338.3 | –
293.15 K, m1 = 2.701 | 344.9 | –
298.15 K, m1 = 0.0499 | 332.9 | 999.86
298.15 K, m1 = 0.1 | 341.6 | 1002.2
298.15 K, m1 = 0.4001 | 344.5 | 1016.61
298.15 K, m1 = 0.7496 | 346.5 | 1032.27
298.15 K, m1 = 1.001 | 347.8 | 1042.69
298.15 K, m1 = 1.498 | 349.2 | 1061.92
298.15 K, m1 = 1.997 | 346.7 | 1079.8
298.15 K, m1 = 2.701 | 352.9 | 1101.9
303.15 K, m1 = 0.0499 | 342 | –
303.15 K, m1 = 0.1 | 350.4 | –
303.15 K, m1 = 0.4001 | 352.9 | –
303.15 K, m1 = 0.7496 | 354.6 | –
303.15 K, m1 = 1.001 | 355.8 | –
303.15 K, m1 = 1.498 | 356.9 | –
303.15 K, m1 = 1.997 | 354 | –
303.15 K, m1 = 2.701 | 359.9 | –
308.15 K, m1 = 0.0499 | 349.7 | 996.7
308.15 K, m1 = 0.1 | 358.1 | 999
308.15 K, m1 = 0.4001 | 360.4 | 1013.2
308.15 K, m1 = 0.7496 | 361.7 | 1028.7
308.15 K, m1 = 1.001 | 362.8 | 1038.8
308.15 K, m1 = 1.498 | 363.6 | 1057.9
308.15 K, m1 = 1.997 | 360.6 | 1075.2
308.15 K, m1 = 2.701 | 366.2 | 1097.2
313.15 K, m1 = 0.0499 | 356.5 | –
313.15 K, m1 = 0.1 | 365 | –
313.15 K, m1 = 0.4001 | 367 | –
313.15 K, m1 = 0.7496 | 368.1 | –
313.15 K, m1 = 1.001 | 369.1 | –
313.15 K, m1 = 1.498 | 369.7 | –
313.15 K, m1 = 1.997 | 366.6 | –
313.15 K, m1 = 2.701 | 371.9 | –
318.15 K, m1 = 0.0499 | 362.5 | 992.82
318.15 K, m1 = 0.1 | 370.9 | 995.17
318.15 K, m1 = 0.4001 | 372.9 | 1009.11
318.15 K, m1 = 0.7496 | 373.8 | 1024.37
318.15 K, m1 = 1.001 | 374.7 | 1034.54
318.15 K, m1 = 1.498 | 375.2 | 1053.25
318.15 K, m1 = 1.997 | 372 | 1070.4
318.15 K, m1 = 2.701 | 377.1 | 1092.04
323.15 K, m1 = 0.0499 | 368.1 | –
323.15 K, m1 = 0.1 | 376.3 | –
323.15 K, m1 = 0.4001 | 378.3 | –
323.15 K, m1 = 0.7496 | 379.1 | –
323.15 K, m1 = 1.001 | 379.8 | –
323.15 K, m1 = 1.498 | 380.2 | –
323.15 K, m1 = 1.997 | 377 | –
323.15 K, m1 = 2.701 | 381.9 | –
328.15 K, m1 = 0.0499 | 372.9 | 988.29
328.15 K, m1 = 0.1 | 381.3 | 990.59
328.15 K, m1 = 0.4001 | 383.2 | 1004.39
328.15 K, m1 = 0.7496 | 383.8 | 1019.46
328.15 K, m1 = 1.001 | 384.5 | 1029.53
328.15 K, m1 = 1.498 | 384.7 | 1048.03
328.15 K, m1 = 1.997 | 381.6 | 1064.94
328.15 K, m1 = 2.701 | 386.3 | 1086.4
333.15 K, m1 = 0.0499 | 377.6 | –
333.15 K, m1 = 0.1 | 385.7 | –
333.15 K, m1 = 0.4001 | 387.6 | –
333.15 K, m1 = 0.7496 | 388.2 | –
333.15 K, m1 = 1.001 | 388.8 | –
333.15 K, m1 = 1.498 | 389 | –
333.15 K, m1 = 1.997 | 385.9 | –
333.15 K, m1 = 2.701 | 390.4 | –
338.15 K, m1 = 0.0499 | 382 | 983.12
338.15 K, m1 = 0.1 | 389.8 | 985.45
338.15 K, m1 = 0.4001 | 391.8 | 999.12
338.15 K, m1 = 0.7496 | 392.3 | 1014.03
338.15 K, m1 = 1.001 | 392.9 | 1023.97
338.15 K, m1 = 1.498 | 392.9 | 1042.32
338.15 K, m1 = 1.997 | 389.9 | 1059.03
338.15 K, m1 = 2.701 | 394.2 | 1080.39
343.15 K, m1 = 0.0499 | 385 | –
343.15 K, m1 = 0.1 | 393.6 | –
343.15 K, m1 = 0.4001 | 395.5 | –
343.15 K, m1 = 0.7496 | 395.9 | –
343.15 K, m1 = 1.001 | 396.5 | –
343.15 K, m1 = 1.498 | 396.5 | –
343.15 K, m1 = 1.997 | 393.5 | –
343.15 K, m1 = 2.701 | 397.7 | –
348.15 K, m1 = 0.0499 | 389 | 977.37
348.15 K, m1 = 0.1 | 396.9 | 979.76
348.15 K, m1 = 0.4001 | 398.9 | 993.29
348.15 K, m1 = 0.7496 | 399.3 | 1008.12
348.15 K, m1 = 1.001 | 399.9 | 1017.97
348.15 K, m1 = 1.498 | 399.9 | 1036.22
348.15 K, m1 = 1.997 | 397 | 1052.82
348.15 K, m1 = 2.701 | 400.9 | 1074.02
353.15 K, m1 = 0.0499 | 392 | –
353.15 K, m1 = 0.1 | 400 | –
353.15 K, m1 = 0.4001 | 401.9 | –
353.15 K, m1 = 0.7496 | 402.3 | –
353.15 K, m1 = 1.001 | 402.9 | –
353.15 K, m1 = 1.498 | 402.9 | –
353.15 K, m1 = 1.997 | 400.2 | –
353.15 K, m1 = 2.701 | 403.9 | –
358.15 K, m1 = 0.0499 | 394 | 971.43
358.15 K, m1 = 0.1 | 402.5 | 973.65
358.15 K, m1 = 0.4001 | 404.6 | 986.64
358.15 K, m1 = 0.7496 | 404.9 | 1001.31
358.15 K, m1 = 1.001 | 405.5 | 1011.25
358.15 K, m1 = 1.498 | 405.5 | 1029.33
358.15 K, m1 = 1.997 | 403.2 | 1045.42
358.15 K, m1 = 2.701 | 406.4 | 1066.46
363.15 K, m1 = 0.0499 | 396 | –
363.15 K, m1 = 0.1 | 404 | –
363.15 K, m1 = 0.4001 | 405.9 | –
363.15 K, m1 = 0.7496 | 406.2 | –
363.15 K, m1 = 1.001 | 406.8 | –
363.15 K, m1 = 1.498 | 406.7 | –
363.15 K, m1 = 1.997 | 405.9 | –
363.15 K, m1 = 2.701 | 407.6 | –
368.15 K, m1 = 0.0499 | – | 964.45
368.15 K, m1 = 0.1 | – | 966.77
368.15 K, m1 = 0.4001 | – | 980.22
368.15 K, m1 = 0.7496 | – | 994.89
368.15 K, m1 = 1.001 | – | 1004.67
368.15 K, m1 = 1.498 | – | 1022.74
368.15 K, m1 = 1.997 | – | 1039.27
368.15 K, m1 = 2.701 | – | 1060.25
